Assay results: patent publication US20210154190A1, “SHP2 INHIBITOR COMPOSITIONS AND METHODS FOR TREATING CANCER” (Revolution Medicines, Inc., priority 2018, published 2021)
Where a chain is given by its changes, count along the chain named. Values joined by “and” are separate entries in the source; they are usually repeats but may differ in a detail not shown here. Equal entries are not always repeated. Where two headings read alike, the source gives them in different places.

Legend:
human SHP2-FL E76K = biological target: T1, human SHP2-FL E76K (Homo sapiens, UniProt Q06124, E76K); experiment: SHP2 allosteric inhibition assay (DiFMUP), E76K; type: biochemical; settings: for IC50: SHP2 E76K
T1 sequence (Q06124 1-593 E76K): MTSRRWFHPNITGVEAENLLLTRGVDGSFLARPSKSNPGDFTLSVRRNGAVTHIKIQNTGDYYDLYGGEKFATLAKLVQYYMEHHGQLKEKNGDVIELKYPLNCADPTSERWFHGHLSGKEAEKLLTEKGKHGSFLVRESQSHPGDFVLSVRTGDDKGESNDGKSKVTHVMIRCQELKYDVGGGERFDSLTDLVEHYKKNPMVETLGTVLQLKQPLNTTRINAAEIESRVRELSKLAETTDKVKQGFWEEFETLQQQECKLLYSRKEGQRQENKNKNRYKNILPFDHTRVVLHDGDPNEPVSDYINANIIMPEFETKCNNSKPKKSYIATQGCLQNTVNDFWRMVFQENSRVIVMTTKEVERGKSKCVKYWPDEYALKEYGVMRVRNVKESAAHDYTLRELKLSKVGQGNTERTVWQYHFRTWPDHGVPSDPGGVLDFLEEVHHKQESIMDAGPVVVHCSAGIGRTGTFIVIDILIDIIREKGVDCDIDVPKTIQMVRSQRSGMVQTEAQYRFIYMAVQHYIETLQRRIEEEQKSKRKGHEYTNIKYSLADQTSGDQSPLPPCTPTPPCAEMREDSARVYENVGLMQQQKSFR
Source text: (§1) Full-length SHP2 is allosterically activated through binding of bis-tyrosyl-phorphorylated peptides to its Src Homology 2 (SH2) domains. The latter activation step leads to the release of the auto-inhibitory interface of SHP2, which in turn renders the SHP2 protein tyrosine phosphatase (PTP) active and available for substrate recognition and reaction catalysis. The catalytic activity of SHP2 was monitored using the surrogate substrate DiFMUP in a prompt fluorescence assay format.
(§2) Diluted inhibitor (5 μL) was mixed with activated enzyme (25 μl) and incubated for 30 minutes at room temperature. […] 50 μl stop solution (0.1 mM sodium pervanadate) was added to each well, the plate was shaken briefly to mix, and read in endpoint mode on a SpectraMax M5 plate reader (Molecular Devices) using excitation and emission wavelengths of 340 nm and 450 nm. Data was imported into GraphPad Prism. Plots of fluorescence intensity vs. log Molar [compound] were created and modeled with a 3-parameter sigmoidal concentration response equation in order to estimate IC50.
(§3) Reactions were then allowed to proceed for 30 minutes and stopped by the addition of a phosphatase inhibitor, sodium pervanadate. De-phosphorylation of DiFMUP results in production of a fluorescent product. Product fluorescence was determined and plotted as a function of compound concentration in order to determine the IC50 for each compound on each mutant using a four parameter sigmoidal dose response function in Prism (GraphPad).
(§4) NsCs mimics the role of the cytosolic domain of a protein tyrosine kinase in this model system.

human SHP2-FL L262R = biological target: T2, human SHP2-FL L262R (Homo sapiens, UniProt Q06124, L262R); experiment: SHP2 allosteric inhibition assay (DiFMUP), L262R; type: biochemical
T2 sequence (Q06124 1-593 L262R): T1 sequence (Q06124 1-593 E76K) with K76E, L262R
Description: as §1
as §2, with “Diluted inhibitor (5 μL) was mixed with activated enzyme (25 μl) and incubated for 30 minutes at room temperature.” left out
as §3, §4

| Compound | IC50 (human SHP2-FL E76K; 0.5 μM NsCs peptide (Activated), read-out: IC50) | IC50 (human SHP2-FL E76K; No Peptide Control (Non-Activated), read-out: pIC50 (converted)) | IC50 (human SHP2-FL L262R; IC50 (nM), SHP2 L262R 0.5 μM NsCs peptide (Activated), human SHP2-FL L262R, 0.5 μM NsCs peptide (activated)) | IC50 (human SHP2-FL L262R; human SHP2-FL L262R alone, no peptide (non-activated), read-out: IC50 (nM), SHP2 L262R No Peptide Control (Non-Activated)) | IC50 (human SHP2-FL L262R; human SHP2-FL L262R alone, no peptide (non-activated), read-out: pIC50, SHP2 L262R No Peptide Control (Non-Activated) (converted)) | IC50 (human SHP2-FL L262R; pIC50, SHP2 L262R 0.5 μM NsCs peptide (Activated), human SHP2-FL L262R, 0.5 μM NsCs peptide (activated)) | Biochemical sensitivity (human SHP2-FL E76K; Variant E76K) | Biochemical sensitivity (human SHP2-FL L262R; Variant L262R) |
| --- | --- | --- | --- | --- | --- | --- | --- | --- |
| Nc1nc(N2CCC3(CCC[C@H]3N)CC2)cnc1Sc1ccnc(Cl)c1Cl [Compound 1] | > 10 µM and 13.1 µM and 10.4 µM | 0.0537 µM and 0.0589 µM and 0.0501 µM | 79.4 nM and 62.2 nM and 69.2 nM and 74.6 nM | 2.83 nM and 3.37 nM and 2.75 nM and 3.43 nM | 2.82 nM and 3.39 nM and 2.75 nM | 79.4 nM and 61.7 nM and 69.2 nM and 74.1 nM | – | – |
| Cc1nc(N2CCC3(CC2)CO[C@@H](C)[C@H]3N)c(CO)nc1-c1cccc(Cl)c1Cl [Compound B] | – | – | – | – | – | – | no (Sensitive if IC50 < 2000 nM) | yes (Sensitive if IC50 < 2000 nM) |
